Results: patent publication US12011433B2 (UNIVERSITÁ DEGLI STUDI DI BARI “ALDO MORO”, priority 2016, dated 2024)
Where two headings read alike, the source gives them in different places. One block for each compound: values may come before it.

Assays:
[1] = test system: BV2 microglial cells; assay: BV2 microglial cell viability, MTT reduction assay; type: cell-based; conditions: 24 h, P6 0.5 and 1 μM, mofezolac 0.1 and 0.5 μM, alone or with LPS
Method: (§1) Cells were then incubated for different times at 37° C. with LPS, as pro-inflammatory stimulus. Experiments included cells grown in medium alone (control).
Cell viability of microglial cells was quantified using the MTT reduction assay. The cells (8×10^3/well) were grown in 96-well plates (Becton Dickinson Labware) in complete medium and treated with different concentration of COX inhibitors, in presence or absence of LPS. Untreated cells were used as a control. A PBS 1× solution of MTT (5 mg/mL) was prepared and added to the cell medium at a final concentration of 0.5 mg/mL. Cells were incubated for 4 h at 37° C. and 5% CO2 to allow the MTT metabolism. The formazan crystals formed (from MTT) into the cells were solubilized with DMSO (Sigma-Aldrich). The levels of MTT formazan were determined measuring the optical density at λ=560 nm and subtracting the background (λ=670 nm) with a Victor Multiplate Reader (Wallac). Optical density was directly correlated to cell quantity.

[2] = target: COX-1 (Mus musculus (Mouse), UniProt P22437); assay: COX-1 expression in LPS-treated BV2 microglial cells, western blotting; type: cell-based; conditions: for COX-1 expression reduction: LPS-activated BV2 cells
Method: as §1
(§2) The tissue and cell culture lysates were vortexed for 15-20 s and, then, centrifuged at 12,800×g for 20 min. The protein concentration in the supernatant was spectrophotometrically determined by Bradford's protein assay (Bradford, 1976). Protein samples were diluted with sample buffer (0.5 M Tris-HCl pH=6.8, 10% glycerol, 10% (w/v) SDS, 5% 2-mercaptoethanol, 0.05% (w/v) bromophenol blue) and then boiled for 3 min. Proteins (25 μg/lane) and prestained standards (BioRad Laboratories, Hercules, CA, USA) were loaded on 7% or 12% SDS precast polyacrylamide gels (BioRad Laboratories).
After electrophoresis, the resolved proteins were transferred from the gel to nitrocellulose membranes. A blotting buffer [20 mMTris/150 mM glycine, pH=8.0, 20% (v/v) methanol] was used for gel and membrane saturation and blotting. Then, membranes were incubated in the dark with 1 μg/mL mouse monoclonal antibody (MoAb) anti-COX-1 and rabbit polyclonal Ab anti-COX-2 (1:1000) (both from AbCam, Cambridge, UK), rabbit polyclonal Ab anti p-IkB-α (1:200), mouse polyclonal Ab anti β-actin (1:500) (all from Santa Cruz Biotechnology), mouse MoAb anti-glial fibrillary acidic protein (GFAP) (1:200) and mouse mAb anti-ionized calcium-binding adapter molecule-1 (Iba-1) (1:200) (both from Merck Millipore) overnight at 4° C. The membranes were washed with 0.1% Tween 20-PBS (for 20 min, 3 times) and then incubated with the secondary antibody diluted 1:2000 for 60 min. Bands were visualized by chemiluminescence detection (Invitrogen, Milan, Italy). The β-actin level was used as a protein loading control. For tissue analysis, obtained bands were normalized to the level of β-actin performed for each cerebral area tested. For cell cultures the bands were normalized to the β-actin level in each experimental condition.

[3] = test system: PGE2; assay: PGE2 release in LPS-stimulated BV2 microglial cells, competitive binding immunoassay; type: cell-based; conditions: for PGE2 release (ng/ml) at 48 h: LPS-stimulated BV2 cells; for PGE2 production reduction: LPS-treated BV2 cells
Method: Microglial cells were cultured in 6-well plates at a density of 3×10^6 cells/well. […] The cultures were maintained at 37° C. for 24 and 48 h in a humidified air containing a 5% CO2. PGE2 levels were determined in the supernatant using a competitive binding immunoassay (Cayman Chemical, Ann Arbor, MI, USA) following the manufacturer's instructions. Unstimulated cells were included as a control. PGE2 amount determination in the brain was performed in the tissue extracts, according to the manufacturer's instructions. The optical density was measured at λ=405-420 nm with precision microplate reader and the amount of PGE2 (ng/mL) was calculated using a PGE2 standard curve.

[4] = target: COX-2 (Mus musculus (Mouse), UniProt Q05769); assay: COX-2 expression in LPS-treated BV2 microglial cells, western blotting; type: cell-based; conditions: LPS-stimulated BV2 cells
Method: as §1, §2
After electrophoresis, the resolved proteins were transferred from the gel to nitrocellulose membranes. A blotting buffer [20 mMTris/150 mM glycine, pH=8.0, 20% (v/v) methanol] was used for gel and membrane saturation and blotting. […]

[5] = GALMOF0 metabolic stability, incubation with rat liver microsomes; type: in vitro ADME
Method: GALMOF0 metabolic stability was determined through its incubation with rat liver microsomes and monitoring the disappearance of its chromatogram peak within 30 min.
The in vitro test was carried out in the presence of rat liver S9 fraction (Tebu-bio, Milan, Italy).
Briefly, GALMOF0 (10 μM) in 100 mM of phosphate buffer (pH=7.4) was mixed with the NADPH regeneration system to a final concentration of 1.3 mM NADP^+, 3.3 mM glucose 6-phosphate and 0.4 U/ml glucose 6-phosphate dihydrogenase and 3.3 mM MgCl2. The experiment started with the addition of rat microsomes (1 mg/ml) that were incubated for 30 min at 37° C. The reaction was blocked by adding an equal volume of cold CH3CN. The samples were centrifuged at 4,600 rpm for 15 min at 4° C. The supernatant was separated and the organic phase analysed by HPLC in the same conditions used for the samples of the “chemical stability study”.
The residual GALMOF0 percentage after 30 min was calculated according the following equation: Residual GALMOF0(%) at 30 min=Cmicr+NADPH/Cmicr×100 where Cmicr+NADPH is the GALMOF0 concentration after the incubation with the microsomes and the NADPH regeneration system (FIG. 8); Cmicr is the GALMOF0 concentration after the incubation with only the microsomes (FIG. 9).

[6] = target: COX-2 (Homo sapiens, UniProt P35354); assay: colorimetric COX Inhibitor screening Assay (peroxidase component, oxidized TMPD at 590 nm); type: biochemical
Method: Human cyclooxygenase inhibitory activity was determined by a colorimetric COX Inhibitor screening Assay which measures the peroxidase component of the cyclooxygenases, monitoring the appearance of oxidized N,N,N′,N′-tetramethyl-p-phenylenediamine (TMPD) at 590 nm.

[7] = test system: GLUT-1; assay: Caco-2 monolayer efflux assay, Apparent Permeability (Papp), with or without GLUT-1 inhibitor phloretin; type: in vitro ADME, Human; conditions: human
Method: (§3) In a monolayer efflux assay, the Apparent Permeability (Papp) in both basolateral to apical [Papp(B→A)] and apical to basolateral [Papp(A→B)] directions was determined for each compound (FIG. 2). Human colonic adenocarcinoma cell line (Caco-2) presents a facilitated transport system at the apical and basolateral surface. Caco-2 cells express high levels of GLUT-1 that are localized to the basolateral membrane and transport glucose to the serosal side.
(§4) The Papp(B→A) flux of each compound alone or in the presence of phloretin, a GLUT-1 inhibitor, has been determined. Since GLUT-1 is express in the basolateral compartment a high B→A flux means that the transport is GLUT-1 mediated because B→A flux represents the active transport.
(§5) A→B flux, which represents the passive transport, has also been determined for each compound (Table 2).

[8] = test system: Caco-2 cells; assay: as above; type: in vitro ADME, Human
Method: as §3, §4, §5

[9] = GALMOF0 chemical stability in buffers by HPLC; type: physicochemical; conditions: pH 1, 3, 7.3 and 8, 37° C., till 60 min
Method: HPLC analyses were performed to determine the chemical stability and the purity grade of GALMOF0 as a representative compound of the set.
Aminica column was used, CH3CN/10 mM Tris-HCl (pH=8) (15:85) was used as mobile phase, T=40° C.; λ=254 nm.
200 μL of 2.5 mg/mL di GALMOF0 in CH3CN were added to 1800 μL of a buffer (pH=1, 3, 7.3 and 8). Each sample was kept stirred at 37° C. Buffer with pH=1 and 3, obtained with 0.1N HCl and 50 mM HEPES, was selected to simulate the chemical stability at gastric level, whereas pH=7.3 and 8, obtained by 50 mM TRIS-HCl, simulated its stability in the blood and gut, respectively.
At 15, 30, 60 min and 48 h, 300 μL of the sample were withdraw, diluted with 300 μL of CH3CN (final concentration=[…]) and tested by HPLC.

Sequence of COX-2 (Homo sapiens, UniProt P35354) (P35354 18-604 limits assumed): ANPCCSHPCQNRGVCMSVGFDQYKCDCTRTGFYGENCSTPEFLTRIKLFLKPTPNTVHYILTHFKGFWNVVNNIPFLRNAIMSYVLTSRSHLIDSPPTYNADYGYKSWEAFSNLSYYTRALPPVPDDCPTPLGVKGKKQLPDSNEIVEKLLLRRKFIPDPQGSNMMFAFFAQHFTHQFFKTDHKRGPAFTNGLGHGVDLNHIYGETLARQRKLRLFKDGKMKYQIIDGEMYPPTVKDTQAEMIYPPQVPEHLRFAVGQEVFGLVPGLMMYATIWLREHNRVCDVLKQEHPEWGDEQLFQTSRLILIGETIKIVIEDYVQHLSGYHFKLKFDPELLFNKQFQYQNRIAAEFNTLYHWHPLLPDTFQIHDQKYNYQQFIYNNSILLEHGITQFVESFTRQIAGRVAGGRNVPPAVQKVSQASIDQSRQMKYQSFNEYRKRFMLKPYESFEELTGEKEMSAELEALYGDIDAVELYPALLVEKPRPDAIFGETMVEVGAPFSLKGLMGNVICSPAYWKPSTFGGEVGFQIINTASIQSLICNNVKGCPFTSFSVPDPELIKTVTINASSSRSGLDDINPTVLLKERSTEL

- COX-1 expression levels ([2]; BV2 cells, 48 h of incubation with LPS, 1 h pre-treated): significantly reduced
- COX-1 expression reduction ([2]; 0.5 μM): 67%
- COX-1 expression reduction ([2]; 1.0 μM): 79%
- COX-2 protein levels [4]: unaffected
Structure (SMILES): Cc1onc(-c2ccc(Cl)o2)c1-c1ccccc1 [Compound P6, 3-(5-chlorofuran-2-yl)-5-methyl-4-phenylisoxazole]
- cell toxicity [1]: No cell toxicity
- PGE2 release (ng/ml) at 48 h ([3]; 0.5 μM inhibitor + LPS): 0.21 ng/mL
- PGE2 release (ng/ml) at 48 h ([3]; 1 μM inhibitor + LPS): 0.12 ng/mL
- PGE2 production reduction ([3]; at 0.5 μM as printed in the text): 78%
- PGE2 production reduction ([3]; at 1 μM as printed in the text): 88%

Structure (SMILES): COc1ccc(-c2noc(CC(=O)OCC3OC(O)C(O)C(O)C3O)c2-c2ccc(OC)cc2)cc1 [GALMOF0, ((2S,3R,4S,6R)-3,4,5,6-tetrahydroxytetrahydro-2H-pyrano-2-yl-) methyl-(2-(3,4-di(4-metoxyphenyl)isoxazol-5-yl)acetate]
- Cmicr, concentration after the incubation ([5]; incubated with only the microsomes, 30 min): 70.51 mAU*s
- Cmicr+NADPH, concentration after the incubation ([5]; incubated with the microsomes and the NADPH regeneration system, 30 min): 68.02 mAU*s
- residual GALMOF0 after 30 min of treatment with microsomes ([5]; rat liver microsomes 1 mg/ml, NADPH regeneration system, 10 μM, 37° C.): 96%
- inhibition at 50 µM ([6]; at 50 μM, the highest concentration tested): 87%
- IC50 ([6]; human cyclooxygenase): 3.1 µM
- Papp A→B ([7]; compound alone, read-out: Papp A → B): 38 ×10⁻⁶ cm/s
- Papp B→A ([7]; compound alone, read-out: Papp B → A): 87.5 ×10⁻⁶ cm/s
- Papp A→B ([7]; with phloretin (GLUT-1 inhibitor), in Phloretin, read-out: Papp A → B, Phloretin): 36.8 ×10⁻⁶ cm/s
- Papp B→A ([7]; with phloretin (GLUT-1 inhibitor), in Phloretin, read-out: Papp B → A, Phloretin): 61 ×10⁻⁶ cm/s
- Papp B → A, Phloretin ([8]; in the presence of 100 mM Phloretin): 61 ×10⁻⁶ cm/s
- reduction of the basolateral to apical flux (Papp B→A) in the presence of phloretin ([8]; phloretin vs alone): 30%
- chemical stability, chromatogram profile [9]: no variation of the chromatogram profile was observed
